Test results as given in patent publication US6960321B1, “Sterilization of fire sprinkler systems” (priority 1999, dated 2005).

Legend:
Low Nutrient Bacteria = experiment: MICkit microbiological testing of pipe water and scrapings, low nutrient bacteria; assay type: cell-based
Description: (§1) One end cap of the pipe was removed and the contaminated water poured out of the pipe and a pre-sterilization sample of the water and scrapings from the interior pipe wall were taken under sterile conditions for microbiological testing employing a MICkit™ supplied by Bioindustrial Technologies, Inc., Georgetown, Tex. The microbiological samples were incubated for three weeks at 35° C. and observed for microbiological growth.
(§2) Steam was then injected into the test pipe by opening the ball valve slowly with the steam pressure at 30 lbs pressure (135° C.). The temperature at the end of the test pipe rapidly rose to 94° C. and then appeared to remain nearly constant. The ball valve was then closed and the pipe cooled to room temperature. The condensate water and scrapings from the interior of the test pipe were collected by removal of the pipe from the adapter under sterile conditions. The samples so collected were microbiologically tested as above.
(§3) The end cap was then replaced with a ball valve and the steam sterilization was repeated. The ball valve at the end of the pipe was opened slightly to allow condensate and live steam to escape. The temperature at the end of the pipe rapidly rose to 110° C. The test was terminated by closing the ball valves and allowing the pipe to cool to room temperature. The pipe was again sampled for microbiological testing as above.
(§4) Microbiologically contaminated water was obtained from a “dead end” water feed-line to a fire protection system and was assayed microbiologically using the MICkit™ giving the following results after only 2 days of incubation at 35° C.:
(§5) The steam was allowed to slowly enter the pipe by regulating the input ball valve with the outlet ball valve open. Steam flowed through the pipe, heating it rapidly to near 100° C. The outlet ball valve was then nearly closed allowing the steam pressure in the pipe to increase. The temperature at the end of the pipe reached 135° C. and was kept there for five minutes. The inlet and outlet ball valves were closed and the pipe with the valves closed was removed and cooled in a stream of water. A small amount of sterile water (autoclaved at 121° C. for 15 minutes) was added to the sterilized pipe and the pipe raised, lowered and rotated to rinse the inside of the pipe system. The pipe was then opened and the water and scrapings from the side of the pipe were taken using sterile techniques for microbiological analysis.
(§6) The drained pipe was then sterilized as in Example 2 (per FIG. 2) using steam and a temperature of 135° C. by controlling the inlet and outlet ball valves. The ball valves at the ends of the pipe were then closed, the pipe removed from the test station and cooled with water. A small amount of sterile water was introduced and the inside of the pipe rinsed with it for several minutes. The pipe was then opened and the water and scrapings from the side of the pipe taken for microbiological analysis.

Iron Related Bacteria = experiment: MICkit microbiological testing of pipe water and scrapings, iron related bacteria; assay type: cell-based
Description: as §1, §2, §3, §4, §5, §6

Acid Producing Bacteria = experiment: MICkit microbiological testing of pipe water and scrapings, acid producing bacteria; assay type: cell-based
Description: as §1, §2, §3, §4, §5, §6

[1] = system: Sulfate Reducing Bacteria; experiment: MICkit microbiological testing of pipe water and scrapings, sulfate reducing bacteria; assay type: cell-based
Description: as §1, §2, §3, §4, §5, §6

[2] = system: aerobic bacteria (colony forming units); experiment: Aerobic plate count of pipe water and scrapings; assay type: cell-based
Description: Microbiologically contaminated water was obtained from a “dead end” water feed-line to a fire protection system and was assayed microbiologically using the […] giving the following results after only 2 days of incubation at 35° C.: [table] The steam was allowed to slowly enter the pipe by regulating the input ball valve with the outlet ball valve open. Steam flowed through the pipe, heating it rapidly to near 100° C. The outlet ball valve was then nearly closed allowing the steam pressure in the pipe to increase. The temperature at the end of the pipe reached 135° C. and was kept there for five minutes. The inlet and outlet ball valves were closed and the pipe with the valves closed was removed and cooled in a stream of water. A small amount of sterile water (autoclaved at 121° C. for 15 minutes) was added to the sterilized pipe and the pipe raised, lowered and rotated to rinse the inside of the pipe system. The pipe was then opened and the water and scrapings from the side of the pipe were taken using sterile techniques for microbiological analysis. The drained pipe was then sterilized as in Example 2 (per FIG. 2) using steam and a temperature of 135° C. by controlling the inlet and outlet ball valves. The ball valves at the ends of the pipe were then closed, the pipe removed from the test station and cooled with water. A small amount of sterile water was introduced and the inside of the pipe rinsed with it for several minutes. The pipe was then opened and the water and scrapings from the side of the pipe taken for microbiological analysis.

[3] = Analysis of residual sodium hypochlorite in water standing in iron pipe; assay type: physicochemical; conditions: 50 ppm in potable tap water in iron pipe, ambient temperature, after 24 hours
Excerpt: The sterilized pipe from Example 2 was then filled with potable tap water containing 50 ppm sodium hypochlorite and allowed to stand at ambient temperature. The sodium hypochlorite, being an oxidizing agent, rapidly dissipated when in contact with the interior iron pipe surface.

[4] = Example 3, steam-sterilized pipe filled with potable tap water containing 50 ppm sodium hypochlorite, 24 hours plus seven days at ambient temperature
[5] = Example 5, sterilized pipe recontaminated 16 hours with dead end water, then tap water with 50 ppm sodium hypochlorite overnight, incubation 15 days
[6] = Example 1, contaminated 1-inch sprinkler pipe, steam, pipe end 94° C., capped end, incubated three weeks at 35° C.
[7] = Example 1, steam repeated with outlet ball valve, pipe end 110° C., incubated three weeks at 35° C.
[8] = Example 2, new pipe infected with dead end water, steam 135° C. for five minutes, incubation 15 days
[9] = Example 4, chemically cleaned contaminated pipe, steam 135° C., after 15 days

SMILES: OCl [sodium hypochlorite, reference compound]
- LNB (Low Nutrient Bacteria; [4]): negative
- LNB (Low Nutrient Bacteria; [5]): positive
- IRB (Iron Related Bacteria; [4]): negative
- IRB (Iron Related Bacteria; [5]): negative
- APB (Acid Producing Bacteria; [4]): negative
- APB (Acid Producing Bacteria; [5]): negative
- SRB [1, 4]: negative
- SRB [1, 5]: negative
- APC [2, 4]: < 1 colony forming units per mil.
- APC [2, 5]: < 1 colony forming units per mil.
- sodium hypochlorite remaining in the water [3]: 0 ppm

SMILES: O [steam]
- LNB (Low Nutrient Bacteria; [6]): Negative
- LNB (Low Nutrient Bacteria; [7]): Negative
- LNB (Low Nutrient Bacteria; [8]): negative
- LNB (Low Nutrient Bacteria; [9]): negative
- IRB (Iron Related Bacteria; [6]): Negative
- IRB (Iron Related Bacteria; [7]): Negative
- IRB (Iron Related Bacteria; [8]): negative
- IRB (Iron Related Bacteria; [9]): negative
- APB (Acid Producing Bacteria; [6]): Negative
- APB (Acid Producing Bacteria; [7]): Negative
- APB (Acid Producing Bacteria; [8]): negative
- APB (Acid Producing Bacteria; [9]): negative
- SRB [1, 6]: Negative
- SRB [1, 7]: Negative
- SRB [1, 8]: negative
- SRB [1, 9]: negative
- APC [2, 8]: < 1 colony forming units per mil.
- APC [2, 9]: < 1 colony forming units per mil.
